{"source": "patent US20170198027A1", "about": "(priority 2012, published 2017)", "key": {"[1]": {"test_system": "ApoE ko mice fed with high fat diet", "from_the_text": "10 ApoE ko mice were fed with regular chow diet and used as negative control group. 50 ApoE ko mice were fed with high fat diet (35% kcal fat, 1% cholesterol) for 8 weeks, and then the plasma samples were collected for lipid profile measurement before the treatment. 50 ApoE ko mice were assigned into 5 groups based on the fasting overnight plasma TC and HDL level.\n19 Mar. 2012 to 6 Apr. 2012: Group the mice based on the TC and HDL level and start the treatment with 3 doses of antibody APOA1 by i.p daily on the weekday (The first dose was administered by iv injection\n13 Apr. 2012-14 May 2012: The treatment with antibody APOA1 was changed to i.p injection every two days (Monday, Wednesday, and Friday) per client's instruction.\nAntibody products were administrated by intraperitoneal injection every two days (Monday, Wednesday, and Friday). and the positive compound was administered by p.o every day.\n5.4. Body weight and blood glucose measurement: The body weight was weighed weekly during the period of treatment. The fasting overnight blood glucose was measured at the end of study by Roche glucometer.\n5.5 24 h food intake measurement: 24 hours food intake for each cage was measured weekly\n5.6. Plasma lipid profile measurement: About 300 ul of blood sample was collected from the orbital vein for each mouse and centrifuged at 7000 rpm for 5 min at 4° C. and the plasma lipid profile was measured by Roche Modular automatic biochemistry analyzer in DaAn Medical Laboratory\nAfter RAAS antibody products treatment for 8 weeks, all mice were sacrificed. Measured body weight and collected blood sample for each mouse. Weighed liver weight and saved a tiny piece of liver into 4% paraformaldehyde (PFA) fixation solution for further analysis. At same time, take the photos with heart, lung, aortas and two kidneys.\nScanning the glasses slides with the Aperio ScanScope system and analyze with the image proplus software to measure the area of atherosclerotic plaque session. The results were expressed as the percentage of the total aortic surface area covered by lesions. The operation procedure of software was briefly described as follow: Converted the sys version photos into JPG version, then calibrated it and subsequently selected the red regions and then calculate the total area automatically by image proplus software.\n(§1) The results were expressed as the Mean±SEM and statistically evaluated by student's t-test."}, "[2]": {"test_system": "Influenza H1N1 A/WSN/33", "assay_type": "in vivo, BALB/c mice"}, "[3]": {"test_system": "Influenza H1N1 A/WSN/33", "assay_type": "in vivo, BALB/c mice", "remark": "listed apart in the source"}, "[4]": {"test_system": "Influenza H1N1 A/WSN/33", "assay_type": "in vivo, BALB/c mice", "conditions": "oseltamivir 30 mg/kg/day po/bid"}, "[5]": {"test_system": "HBV", "test": "HBV mouse hydrodynamic injection model", "assay_type": "in vivo, BALB/c mice", "protocol": "3.1.1. From day −7 to day 0, all 5 mice in group 4 were administrated i.p./i.v. with test article daily for 8\n3″ 1.2″ On day 0, all groups of mice were hydrodynamicly injected via tail vein with pcDNA3.1/HBV plasmid DNA in a volume of normal saline equal to 8% of a mouse body weight. The plasmid DNA solution for injections was prepared one day before injection and then stored in 4GC until injection”\n[…] […] For group 4, the last dosing was carried out 4 hours post HOI.\n3.1.4. All mice were submandibularly blec! for plasma preparation according to the design in Table 1.\n3.1.5. All mice were sacrificed and c!issectec! to obtain livers (two pieces of left lobe, one piece of middle lobe and one piece of right lobe) according to the regimen in table 1. Isolated livers were snap frozen in liquid nitrogen immec!iately upon collected.\n3.2.1.1 Isolate DNA from 50 pi plasma using QIAamp 96 DNA Blood Kit. DNA was eluted with\n3.2.12 Run qPCR for HBV DNA quantification.\nTo eliminate the influence of input HBV plasmid, primers and probe targeting HBV sequence which detect newly replicated HBV DNA and input HBV plasmid DNA and targeting pcDNA3.1 plasmid backbone sequence which only detect the input plasmid DNA were used to do real-time PCR, respectively”\nHBV DNA quantity=DNA determined by HBV primer-DNA determined by plasmid primer.\nDilute the plasma 500 fold;\nDetect HBsAg level in 50 pl diluted plasma by using HBsAg ELISA kit.\na) Homogenize the liver tissue with Qiagen Tissue Lyser in 10 mM Tris.HCI, 10 mM EDTA, pH7.5.\nThe total liver DNA was diluted to 10 ng/pl. Use 10 iJI diluted sample to run real-time PCR. HBV DNA quantity=DNA determined by HBV primer-DNA determined by plasmid primer.\na) Load 50 pg DNA for each sample. Run •1.2% agarose gel in 1×TAE."}, "[6]": {"test_system": "New Zealand white rabbit fed with high fat diet", "conditions": "rabbit, in vivo", "description": "The treatment groups were given APOAJ via auricular vein once a week Vehicle controls received normal saline via auricular vein once a week. […] The body weight of animal was determined every week and whole blood was drawn every three weeks. The study duration was 19 weeks. At the end of study, all animals were sacrificed. […] Male New Zealand white rabbits were used in this study. […] Blood samples were taken 12 hour after fasting before study to determine the blood lipid parameters. […] Ten to 14 rabbits were in one group. […] First dose was given 1 week before high fat diet. […] 5.2 blood lipid parameters: whole blood was drawn every three weeks. Animals were subject to 12 hour fast before taking blood. […] The upper layer of serum was then separated and examined for total cholesterol (TC), total triglyceride (TG), low density lipoprotein cholesterin (LDL-C), and high density lipoprotein cholesterin (HDL-C). Test reagents were purchased from Shanghai A: The atherosclerosis of aorta (plaque area lj) B: Liver index C: Aorta, liver, heart, arteria carotis, kidney All animals were anesthetized by 20 of ethyl carbamate and then sacrificed with air injection. Abdomen cavity was opened. Whole blood was taken from heart. Heart was harvested along with 7 em of aorta. Then other organs like liver, kidney and arteria carotis were harvested. […] Pictures were taken then. Aorta was cut from aortic arch, opened longitudinally and taken picture. […] One piece of this sample was fixed in fomlalin for further pathological analysis. The weight of liver was determined immediately. Two pieces of specimen were cut from hepatic lobe. One was kept in cryo-preservation tube for lipid analysis and another one was fixed in formalin for further pathological analysis. Animals were fast for 12 hours before taking blood samples via auricular vein. […] Test reagents were purchased from Shanghai Rong Sheng Bio-pharmaceutical Co. Ltd. The aorta was dissected and opened for 7.5 em from aortic arch longitudinally. Pictures were taken and atherosclerosis changing was analyzed."}, "[7]": {"test_system": "4T1-luc breast cancer cells", "conditions": "vs vehicle group", "protocol": "The cell suspension was carried to the animal room in an ice box. […] Totally 80 mice were selected and divided into 10 groups. All mice were monitored daily.\nTumor growth status was monitored by both IVIS Lumina II and a digital caliper twice weekly since the day after cell implantation.\nFor IVIS Lumina II measurement, bioluminescence intensity of primary tumor and metastatic tumor was obtained according to the following procedure:\n1. Tumor-bearing mice were \\Neighted and intra peritoneally administered luciferin at a dose of 150 mg/kg (10 ml/kg);\n2. After 10 min, mice were pre-anesthetized with the mixture of oxygen and isoflurane. […]\n3. ROI data was calculated with IVIS Lumina II software and relative ROI was calculated to express the tumor growth status. […]\nTumor size was measured twice a week in two dimensions using a caliper. and the tumor volume (V) was expressed in mm3 using the formula: V=0.5 a×b2 where a and bare the long and short diameters […]\n2. […] Body weights were measured and recorded twice weekly.\nTGI (tumor growth inhibition, in percent) was calculated according to the following equation: […]\nT/C (%) was calculated based on the tumor volume data collected on Day 27.\nThe difference between the mean values of tumor volume in treatment and vehicle groups was analyzed for significance using one way ANOVA test at each time point after log transformation."}, "[8]": {"test_system": "HCV", "test": "HCV replicon dose-dependent curves (figure legends, genotype not stated)", "assay_type": "cell-based", "conditions": "FIG. 44/45 legends", "from_the_text": "FIGS. 44-1 through 44-18.\nFIGS. 451 through 45-18-.\nFIGS. 44-1 through 44-18. Dose-dependent curves (CC 50 values)\nFIG. 45-1 through 45-18 Dose-dependent curves (EC50 values)"}, "[9]": {"test_system": "db/db mice", "protocol": "Fasting 6 hours and overnight blood glucose were measured. 60 db/db mice were assigned into 5 grouped based on the fasting 6 h blood glucose and body weight. […] 8 db/rn lean mice was used as negative control group […]\n5.2. Study duration: This study was conducted in two periods: Period 1: Oct. 13, 2011-Feb. […] 13-Mar. 16, 2012: Test 3 antibody products\nFeb. 13, 2012: Start the treatment with 3 antibodies by i.p every two days (Monday, Wednesday, Friday) after 8 weeks washout from previous treatment.\nAntibody products were administrated by intraperitoneal injection and the positive compound was mixed into food at the dose 30 rng/kg/day.\n5.4. Body weight and blood glucose measurement: Fasting 6 hours body weight and blood glucose concentration were measured by Roche giucometer weekly.\n5.5. Plasma insulin measurement: About 30 ul of blood sample was collected from the orbital vein for each mouse and centrifuged 7000 rpm at 4° C. for 5 min. Plasma samples were saved in −70 l-::. The plasma insulin level was measured with EUSA kit (CRYSTAL, cat#90080), 5.6. Plasma lipid profile measurement: The plasma lipid profile were measured by the DaAn Clinic central lab.\n5.7. Study taken down: After 14 dose antibody products treatment, all mice were sacrificed. Measure body weight and collect blood sample for each mouse. Measure liver weight and save one piece for pathology study and freeze one piece in liquid nitrogen for further analysis in the future. Save pancreas into 4% paraformaldehyde (PFA) fixation solution for future analysis.\nas §1"}}, "note": "Where “and” joins values, the source holds several entries; their conditions need not be identical. Equal values may be shown once. Read-outs that look alike come from different tables or passages of the source."}
{"compound": "APOA 1", "values": [{"measurement": "Wounded (number of mice)", "setting": "[1]; APOA 1 high dose group", "result": 1}, {"measurement": "Dead (number of mice)", "setting": "[1]; APOA 1 high dose group, reason: Kidney infection & i.v injection", "result": 2}, {"measurement": "Wounded (number of mice)", "setting": "[1]; APOA 1 mid dose group", "result": 1}, {"measurement": "Dead (number of mice)", "setting": "[1]; APOA 1 mid dose group, reason: Blood collection", "result": 1}]}
{"compound": "CCOC(=O)C1=C[C@@H](OC(CC)CC)[C@H](NC(C)=O)[C@@H](N)C1", "note": "[Oseltarnivir]", "values": [{"measurement": "Survivor/total", "setting": "[2]; H1N1 + Oseltamivir po BID, dose cell prints 0.2/0.4 ml/mouse", "result": "4/4"}, {"measurement": "Mean day to death ± S.D.", "setting": "[2]; H1N1 + Oseltamivir po BID, dose cell prints 0.2/0.4 ml/mouse, P<0.001 vs vehicle", "result": ">14 ± 0.0", "unit": "days"}]}
{"compound": "CCOC(=O)C1=C[C@@H](OC(CC)CC)[C@H](NC(C)=O)[C@@H](N)C1", "note": "[Oseltamivir, Oseltamivir phosphate (prodrug)]", "values": [{"measurement": "Mean day to death ± S.D.", "setting": "[3]; H1N1 + Oseltamivir 1 mg/kg, P<0.01 vs vehicle", "result": ">10 ± 0.0", "unit": "days"}, {"measurement": "survival", "setting": "[3]; oseltamivir po/bid", "result": "survived completely"}, {"measurement": "survival", "setting": "[4]", "result": "survived completely"}, {"measurement": "body weights dropped by", "setting": "[2]; mouse, in vivo", "result": "< 15", "unit": "%"}, {"measurement": "survival", "setting": "[2]; oseltamivir 1 mg/kg orally twice daily for 8 days", "result": "survived and 4 out of 5"}]}
{"compound": "C=C1[C@H](CO)[C@@H](O)C[C@@H]1n1cnc2c(=O)[nH]c(N)nc21", "note": "[ETV, Entecavir]", "values": [{"measurement": "HBV intermediate DNA in livers (real-time PCR)", "setting": "[5]; ETV day 5, RASS 8 prophylactic treatment day 7", "result": "significantly decreased the HBV intermediate DNA in liver"}, {"measurement": "ssDNA, HBV replication intermediate DNA in livers (southern blot)", "setting": "[5]; RASS 8 prophylactic treatment or ETV treatment", "result": "decreased dramatically"}, {"measurement": "inhibition to the HBV replication (plasma)", "setting": "[5]; therapeutically treated, from day 3 post HDI to end", "result": "significant inhibition"}, {"measurement": "HBsAg level in plasma (ELISA)", "setting": "[5]; within 5 days post HBV HDI, RASS 8 therapeutic and prophylactic", "result": "didn't have significant inhibition"}]}
{"compound": "CC(C)c1c(C(=O)Nc2ccccc2)c(-c2ccccc2)c(-c2ccc(F)cc2)n1CC[C@@H](O)C[C@@H](O)CC(=O)O", "note": "[Liptor, reference compound]", "values": [{"measurement": "calcification, pathological examination", "setting": "[6]", "result": "one animal with calcification"}]}
{"compound": "Nc1ccn([C@@H]2O[C@H](CO)[C@@H](O)C2(F)F)c(=O)n1", "note": "[gemcitabine, reference compound]", "values": [{"measurement": "one-way ANOVA analysis on tumor volume changes", "setting": "[7]; Day 20", "result": "*′**"}, {"measurement": "tumor volume", "setting": "[7]; gemcitabine since day 13", "result": "significant tumor volume reduction"}]}
{"compound": "NC(=O)c1ncn([C@@H]2O[C@H](CO)[C@@H](O)[C@H]2O)n1", "note": "[Ribavirin]", "values": [{"measurement": "inhibition of HCV", "setting": "[8]", "result": 50, "unit": "%"}]}
{"compound": "CC(C)c1c(C(=O)Nc2ccccc2)c(-c2ccccc2)c(-c2ccc(F)cc2)n1CC[C@@H](O)C[C@@H](O)CC(=O)O", "note": "[Atorvastatin, reference compound]", "values": [{"measurement": "arteriosclerosis plaque lesion in the region of thoracic aorta (root plaque area)", "setting": "[1]; APOA1 mid dose and low dose, not significant vs vehicle", "result": "trend of reducing the arteriosclerosis plaque lesion"}, {"measurement": "fasting overnight blood glucose", "setting": "[1]; after 8 weeks treatment vs vehicle", "result": "no effect"}, {"measurement": "atherosclerosis plaque lesion area of aorta", "setting": "[1]; after 8 weeks treatment, APOA1 low dose", "result": "significant reduced the plaque lesion area"}, {"measurement": "Liver weight", "setting": "[1]; atorvastatin 20 mg/kg, after 8 weeks treatment", "result": "reduced liver weight and the ratio of liver/body weight significantly"}, {"measurement": "atherosclerosis plaque lesion from the aortic root to right renal artery", "setting": "[1]; atorvastatin p=0.08", "result": "trend of reducing the atherosclerosis plaque lesion"}, {"measurement": "body weight", "setting": "[1]; vs vehicle group, atorvastatin after 5 weeks treatment", "result": "significantly reduced the body weight"}]}
{"compound": "CCc1ccc(CCOc2ccc(CC3SC(=O)NC3=O)cc2)nc1", "note": "(stereo not drawn) [Pioglitazone]", "values": [{"measurement": "dead mice: kidney infection", "setting": "[9]; Part 1, Positive group (30 mg/kg/day in food)", "result": 1}, {"measurement": "dead mice: kidney bleeding", "setting": "[9]; db/db, mouse, in vivo, 32 days", "result": 1}, {"measurement": "fasting overnight BG", "setting": "[9]; period 1", "result": "significantly lower blood glucose"}, {"measurement": "body weight", "setting": "[9]; period 1, AFOD 3 doses after 3 weeks, pioglitazone after 2 weeks", "result": "significantly increased body weight"}, {"measurement": "blood glucose (fasting 6 h)", "setting": "[9]; period 1, pioglitazone after 1 week, AFOD low dose after 8 doses", "result": "significantly reduced blood glucose"}, {"measurement": "blood glucose (fasted 6 h)", "setting": "[9]; period 2", "result": "significant difference on blood glucose"}, {"measurement": "liver weight and ratio of liver/body weight", "setting": "[9]; period 2", "result": "effect on reducing the ratio"}, {"measurement": "overnight fasting blood glucose", "setting": "[9]; period 2, after 4 weeks treatment", "result": "significantly reduced the fasting overnight blood glucose level"}, {"measurement": "plasma triglyceride level", "setting": "[9]; period 2, after 5 weeks treatment", "result": "significantly lowered"}, {"measurement": "body weight", "setting": "[9]; period 2, vs vehicle group", "result": "effect on increasing body weight"}, {"measurement": "plasma insulin resistance (HOMA-IR)", "setting": "[9]; period 2, AFOD after 14 doses (p=0.054), pioglitazone after 5 weeks (p=0.051)", "result": "trend on improving insulin resistance"}]}
